Patent US11827628B2, “Compositions and methods for inhibition of the JAK pathway” (Rigel Pharmaceuticals, Inc., priority 2005, dated 2023)

How the values were obtained:
Primary human T-cells = assay: Primary Human T-Cell Proliferation Assay Stimulated with IL-2 (CellTiter-Glo); assay type: cell-based; details: primary human T-cell proliferation stimulated with IL-2; read-out: IC50, Example 42
In short: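 IC50 derived from CellTiter-Glo ATP signal after 72 hours of IL-2-driven proliferation at 37° C. Cells: primary human T-cells from blood, stimulated beforehand 3-4 days on anti-CD3/anti-CD28 with IL-2, then rested from IL-2 before compound exposure in duplicate; IL-2-free wells served as unstimulated control.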

[1] = tested on: IL-4 stimulated expression of CD23 in human Ramos B cells (JAK-1 and JAK-3); assay: Assay for Ramos B-Cell Line Stimulated with IL-4 (CD23 upregulation, FACS); assay type: cell-based; details: Ramos B-cell line stimulated with IL-4; CD23 expression by FACS; read-out: IC50, Example 41
In short: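 Human Ramos B cells (5×10^4 per point, RPMI 5% serum) pre-incubated 1 h at 37 °C with compound or DMSO, then stimulated with IL-4 at 50 units/mL final for 20-24 h. CD23 upregulation measured by anti-CD23-PE staining and flow cytometry; IC50 derived.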

Row | Structure (SMILES) | IC50 (Primary human T-cells) | IC50 [1]
1 | Cc1cc(COc2ccc(Nc3nc(Nc4ccc(F)c(S(N)(=O)=O)c4)ncc3F)cc2C)no1 [Compound I-237, N2-(3-Aminosulfonyl-4-fluorophenyl)-5-fluoro-N4-[3methyl-4-(5-methylisoxazol-3-yl)methyleneoxyphenyl]-2,4-pyrimidinediamine] | 2040 nM | 147 nM
2 | Cc1cc(COc2ccc(Nc3nc(Nc4cccc(S(N)(=O)=O)c4)ncc3F)cc2C)no1 [Compound I-238, N2-(3-Aminosulfonylphenyl)-5-fluoro-N4-[3-methyl-4-(5-methylisoxazol-3-yl)methyleneoxyphenyl]-2,4-pyrimidinediamine] | 456 nM | 165 nM
3 | CCN(CC)CCNS(=O)(=O)c1cccc(Nc2ncc(F)c(Nc3ccc(OCc4cc(C)on4)cc3)n2)c1 [Compound I-241, N2-[3-(2-N,N-Diethylaminoethyl)aminosulfonylphenyl)-5-fluoro-N4-[4-(5-methylisoxazol-3-yl)methyleneoxyphenyl]-2,4-pyrimidinediamine] | 442 nM | 266 nM
4 | CCN(CC)CCNS(=O)(=O)c1cccc(Nc2ncc(F)c(Nc3ccc(OCc4cc(C)on4)c(C)c3)n2)c1 [Compound I-244, N2-[3-(2-N,N-Diethylaminoethyl)aminosulfonylphenyl)-5-fluoro-N4-[3-methyl-4-(5-methylisoxazol-3-yl)methyleneoxyphenyl]-2,4-pyrimidinediamine] | 1410 nM | 285 nM
5 | CCN(CC)CCNS(=O)(=O)c1ccc(Nc2ncc(F)c(Nc3ccc(OCc4cc(C)on4)c(C)c3)n2)cc1 [Compound I-245, N2-[4-(2-N,N-Diethylaminoethyl)aminosulfonylphenyl)-5-fluoro-N4-[3-methyl-4-(5-methylisoxazol-3-yl)methyleneoxyphenyl]-2,4-pyrimidinediamine] | 1740 nM | 202 nM
6 | CCN(CC)CCNS(=O)(=O)c1ccc(Nc2ncc(F)c(Nc3ccc(OCc4cc(C)on4)cc3)n2)cc1 [Compound I-246, N2-[4-(2-N,N-Diethylaminoethyl)aminosulfonylphenyl)-5-fluoro-N4-[4-(5-methylisoxazol-3-yl)methyleneoxyphenyl]-2,4-pyrimidinediamine] | 182 nM | 106 nM
7 | Cc1cc(COc2ccc(Nc3nc(Nc4cccc(S(=O)(=O)N(Cc5oc(=O)oc5C)Cc5oc(=O)oc5C)c4)ncc3F)cc2)no1 [Compound I-248, N2-{3-[N-N-Di-[(5-Methyl-1,3-dioxolene-2-one-4-yl)methylene]]aminosulfonylphenyl}-5-fluoro-N4-[4-(5-methylisoxazol-3-yl)methyleneoxyphenyl]-2,4-pyrimidinediamine] | 138 nM | 388 nM
8 | Cc1noc(COc2cccc(Nc3nc(Nc4cccc(S(N)(=O)=O)c4)ncc3F)c2)n1 [Compound I-252, N2-(3-Aminosulfonylphenyl)-5-fluoro-N4-[3-(3-methyl-1,2,4-oxadiazol-5-yl)methyleneoxyphenyl]-2,4-pyrimidinediamine] | 558 nM | 90.6 nM
9 | Cc1noc(COc2cccc(Nc3nc(Nc4ccc(C)c(S(N)(=O)=O)c4)ncc3F)c2)n1 [Compound I-254, N2-(3-Aminosulfonyl-4-methylphenyl)-5-fluoro-N4-[3-(3-methyl-1,2,4-oxadiazol-5-yl)methyleneoxyphenyl]-2,4-pyrimidinediamine] | 1910 nM | 155 nM
10 | CNS(=O)(=O)c1cc(Nc2ncc(F)c(Nc3cccc(OCc4nc(C)no4)c3)n2)ccc1C [Compound I-255, 5-Fluoro-N2-[3-(N-methylaminosulfony)-4-methylphenyl]-N4-[3-(3-methyl-1,2,4-oxadiazol-5-yl)methyleneoxyphenyl]-2,4-pyrimidinediamine] | 2860 nM | 256 nM
11 | CCN(CC)CCNS(=O)(=O)c1ccc(Nc2ncc(F)c(Nc3cccc(OCc4nc(C)no4)c3)n2)cc1 [Compound I-256, N2-[4-(2-N,N-Diethylaminoethyl)aminosulfonylphenyl)-5-fluoro-N4-[3-(3-methyl-1,2,4-oxadiazol-5-yl)methyleneoxyphenyl]-2,4-pyrimidinediamine] | 38200 nM | 282 nM
12 | Cc1noc(COc2ccc(Nc3nc(Nc4cccc(S(=O)(=O)NCc5oc(=O)oc5C)c4)ncc3F)cc2)n1 [Compound I-257, N2-{3-[(N-5-Methyl-1,3-dioxolene-2-one-4-yl)methylene]aminosulfonylphenyl}-5-fluoro-N4-[4-(3-methyl-1,2,4-oxadiazol-5-yl)methyleneoxyphenyl]-2,4-pyrimidinediamine] | 102 nM | 145 nM
13 | Cc1noc(COc2ccc(Nc3nc(Nc4cccc(S(N)(=O)=O)c4)ncc3F)cc2)n1 [Compound I-258, N2-(3-Aminosulfonylphenyl)-5-fluoro-N4-[4-(3-methyl-1,2,4-oxadiazol-5-yl)methyleneoxyphenyl]-2,4-pyrimidinediamine] | 55.4 nM | 28 nM
14 | Cc1noc(COc2ccc(Nc3nc(Nc4ccc(C)c(S(N)(=O)=O)c4)ncc3F)cc2)n1 [Compound I-259, N2-(3-Aminosulfonyl-4-methylphenyl)-5-fluoro-N4-[4-(3-methyl-1,2,4-oxadiazol-5-yl)methyleneoxyphenyl]-2,4-pyrimidinediamine] | 65.8 nM | 27.9 nM
15 | CNS(=O)(=O)c1cc(Nc2ncc(F)c(Nc3ccc(OCc4nc(C)no4)cc3)n2)ccc1C [Compound I-260, 5-Fluoro-N2-[3-N-(methyl)aminosulfonyl-4-methylphenyl)-N4-[4-(3-methyl-1,2,4-oxadiazol-5-yl)methyleneoxyphenyl]-2,4-pyrimidinediamine] | 223 nM | 94.8 nM
16 | CCN(CC)CCNS(=O)(=O)c1ccc(Nc2ncc(F)c(Nc3ccc(OCc4nc(C)no4)cc3)n2)cc1 [Compound I-263, N2-[4-(2-N,N-Diethylaminoethyl)aminosulfonylphenyl)-5-fluoro-N4-[4-(3-methyl-1,2,4-oxadiazol-5-yl)methyleneoxyphenyl]-2,4-pyrimidinediamine] | 64.4 nM | 124 nM
17 | Cc1noc(COc2ccc(Nc3nc(Nc4cc(C)c(Cl)c(S(N)(=O)=O)c4)ncc3F)cc2)n1 [Compound I-265, N2-(3-Aminosulfonyl-4-chloro-5-methylphenyl)-5-fluoro-N4-[4-(3-methyl-1,2,4-oxadiazol-5-yl)methyleneoxyphenyl]-2,4-pyrimidinediamine] | 39.7 nM | 42.3 nM
18 | Cc1noc(COc2ccc(Nc3nc(Nc4ccc(F)c(S(N)(=O)=O)c4)ncc3F)cc2)n1 [Compound I-266, N2-(3-Aminosulfonyl-4-fluorophenyl)-5-fluoro-N4-[4-(3-methyl-1,2,4-oxadiazol-5-yl)methyleneoxyphenyl]-2,4-pyrimidinediamine] | 201 nM | 85.1 nM
19 | Cc1noc(CCc2ccc(Nc3nc(Nc4ccc(F)c(S(N)(=O)=O)c4)ncc3F)cc2)n1 [Compound I-267, N2-(3-Aminosulfonyl-4-fluorophenyl)-5-fluoro-N4-[4-(3-methyl-1,2,4-oxadiazol-5-yl)ethylenephenyl]-2,4-pyrimidinediamine] | 2020 nM | 328 nM
20 | Cc1noc(COc2ccc(Nc3nc(Nc4ccc(S(N)(=O)=O)cc4)ncc3F)cc2)n1 [Compound I-268, N2-(4-Aminosulfonylphenyl)-5-fluoro-N4-(4-[3-methyl-1,2,4-oxadiazol-5-yl]methyleneoxyphenyl)-2,4-pyrimidinediamine] | 140 nM | 60.7 nM
